Numbers after ± are expanded uncertainties.
Tests used:
[1] = Crystal; DTA
[2] = Molar enthalpy of transition or fusion; details: Crystal; DSC

- Normal melting temperature [1]: 316.37 ± 24 °C
- Molar enthalpy of transition or fusion [2]: 10.9 ± 0.478 kcal/mol
SMILES: COc1cc(O)c2c(c1)oc(=O)c1c3cc(O)c(O)cc3oc21 [wedelolactone]
